{"source": "patent US20150290227A1", "about": "“USE OF HAMAMELITANNIN FOR THE TREATMENT OF STAPHYLOCOCCAL INFECTIONS” (priority 2006, published 2015)", "key": {"S. aureus strain": {"test_system": "S. aureus strain", "assay": "Bacterial growth in vitro / MIC", "format": "cell-based"}, "S. aureus cells": {"test_system": "S. aureus cells", "assay": "S. aureus cell attachment in vitro in polystyrene plates", "format": "cell-based", "conditions": "for reduction of cell attachment (in words): 0-50 μg, 3 hrs at 37° C., OD 595 nm; for amount most effective in reducing cell attachment: converted dose", "procedure": "Attached cells were stained and OD595nm was determined.\nTo test for the effect of hamamelitannin on bacterial attachment in vitro, S. aureus cells were incubated with 0-50 μg hamamelitannin or RIP in polystyrene plates for 3 hrs at 37° C. Adherent bacteria were stained with methylene blue and OD determined at 595 nm."}, "MRSE [1]": {"test_system": "MRSE", "assay": "Rat graft-associated infection, local treatment (graft soak), MRSE challenge", "format": "in vivo, S. epidermidis", "conditions": "for bacterial load on graft: day 7", "procedure": "(§1) FIG. 7 is a graph presentation of the effectiveness of bacterial graft-associated infection inhibition by hamamelitannin against challenge by MRSA and MRSE using local treatment (graft soak).\n(§2) To test if hamamelitannin could inhibit graft-associated infection, grafts (1 cm^2 collagen coated Dacron) were soaked for 1 h in increasing hamamelitannin concentrations. The graft was then implanted into the animal, and bacteria injected onto the graft. Seven days later the graft was removed and bacteria on the graft counted."}, "MRSA [2]": {"test_system": "MRSA", "assay": "Rat graft-associated infection, bacteria pre-incubated with agent, MRSA challenge", "format": "in vivo, S. aureus", "conditions": "for amount that could prevent an infection: infection caused by 2×10^7 CFU MRSA, rat graft", "procedure": "(§3) FIG. 6 is a graph presentation of the effectiveness of bacterial graft-associated infection inhibition by hamamelitannin and RIP against challenge by methicillin resistant S. aureus and S. epidermidis (MRSA and MRSE) using pre-incubation.\n(§4) To measure the amount of hamamelitannin necessary to prevent device-associated infections, bacteria (2×10^7 MRSA or MRSE) were pre-incubated with increasing amounts of hamamelitannin for 30 min at room temperature. Grafts were implanted and rats were challenged with the pre-incubated bacteria. Seven days later the graft was removed and bacterial load determined. […] No bacteria was found when either MRSA or MRSE were pre-incubated with >20 μg hamamelitannin.\n(§5) In the testing reflected in FIG. 6 and summarized above, to ascertain the amount of hamamelitannin/bacteria necessary to potentially prevent device-associated infections, bacteria (2×10^7 MRSE or MRSA in 150 μl saline) were pre-incubated with hamamelitannin (0, 0.5, 10, 20, 30, 50 μg) for 30 min at room temperature, as noted. Grafts were implanted and rats were challenged with the pre-incubated bacteria. Seven days later the graft was removed and bacterial load determined. […] When the bacteria was treated with 0.5, 10, 20, 30 or 50 μg hamamelitannin, MRSE load was 8.4×10^3±2.2×10^3 for 0.5 μg and 8.7×10^1±6.6×10^1 for 10 μg."}, "RNAIII": {"test_system": "RNAIII", "assay": "RNAIII production in S. aureus cells containing rnaiii::blaZ fusion construct, measured as β-lactamase activity", "format": "cell-based", "conditions": "for inhibition of RNAIII synthesis (in words): 0-50 μg", "procedure": "RNAIII levels were determined as β-lactamase activity (reporter gene product) and denoted as Vmax.\nTo test if hamamelitannin is a quorum sensing inhibitor and thus suppresses RNAIII synthesis, 2×10^7 cells were incubated with increasing amounts (0-50 μg) of hamamelitannin (or RIP). RNAIII levels were measured as β-lactamase activity as a reporter gene product by the addition of nitrocefin as substrate. […] Hamamelitannin (2′,5-di-O-galloyl hamamelose) was purchased from Chromadex, Inc. (93% purity, as assessed by HPLC by the manufacturer). Hamamelitannin was dissolved in water at 25 mg/ml and stored at −70° C. until use."}, "[3]": {"test_system": "tumor necrosis factor α-mediated endothelial cell death", "conditions": "cited from earlier work"}, "[4]": {"test_system": "cell damage induced by peroxides or UVB radiation", "conditions": "cited from earlier work"}, "MRSA [5]": {"test_system": "MRSA", "assay": "Rat graft-associated infection, local treatment (graft soak), MRSA challenge", "format": "in vivo, S. aureus", "procedure": "as §1, §2"}, "MRSE [6]": {"test_system": "MRSE", "assay": "Rat graft-associated infection, bacteria pre-incubated with agent, MRSE challenge", "format": "in vivo, S. epidermidis", "conditions": "for amount that could prevent an infection: infection caused by 2×10^7 CFU MRSE, rat graft", "procedure": "as §3, §4, §5"}}, "note": "“And” between values parts separate entries of the source, which are not always exact repeats. Identical values can stand only once.", "data": [{"molecule": "CC1(C)S[C@@H]2[C@H](NC(=O)[C@H](N)c3ccccc3)C(=O)N2[C@H]1C(=O)O", "note": "[ampicillin, reference compound]", "values": [{"measurement": "MIC of ampicillin (reference drug)", "setting": "S. aureus strain; same S. aureus strain", "value": 0.2, "unit": "uM per 1000 bacteria"}]}, {"molecule": "O=C(OC[C@H]1OC(O)[C@@](O)(COC(=O)c2cc(O)c(O)c(O)c2)[C@@H]1O)c1cc(O)c(O)c(O)c1", "note": "(stereo partly drawn) [hamamelitannin, 2′,5-di-O-galloyl hamamelose]", "values": [{"measurement": "reduction of cell attachment (in words)", "setting": "S. aureus cells", "value": "reduced cell attachment in a dose-dependent manner"}, {"measurement": "amount most effective in reducing cell attachment", "setting": "S. aureus cells", "value": 0.4, "unit": "picomoles/10^3 bacteria"}, {"measurement": "bacterial load on graft", "setting": "MRSE [1]; MRSE, graft pre-soaked with 0.5 mg/L", "value": "9.0×10^4±2.6×10^4 CFU/mL"}, {"measurement": "bacterial load on graft", "setting": "MRSE [1]; MRSE, graft soaked with 10 mg/L", "value": "2.1×10^3±0.2×10^3 CFU/mL"}, {"measurement": "bacterial load on graft", "setting": "MRSE [1]; MRSE, graft soaked with 30 or 50 mg/L", "value": "< 10", "unit": "CFU/mL"}, {"measurement": "pre-soak concentration at which grafts show no signs of infection", "setting": "MRSE [1]; challenge 2×10^7, MRSE", "value": "at least 30 mg/L and ~60 uM"}, {"measurement": "decrease in bacterial load versus untreated control (in words)", "setting": "MRSE [1]; grafts presoaked 1 h, 0-50 mg/L, MRSE", "value": "Significant (p<0.05) decrease in bacterial load"}, {"measurement": "amount that could prevent an infection", "setting": "MRSA [2]", "value": 10, "unit": "µg"}, {"measurement": "amount at which no bacteria was found on graft", "setting": "MRSA [2]; rat, 2×10^7 MRSA pre-incubated 30 min, graft removed after seven days", "value": "> 20", "unit": "µg"}, {"measurement": "MRSA load on graft", "setting": "MRSA [2]; rat, 2×10^7 MRSA pre-incubated with 0.5 μg, day 7", "value": "8.8×10^3±2.3×10^3 CFU/mL"}, {"measurement": "MRSA load on graft", "setting": "MRSA [2]; rat, 2×10^7 MRSA pre-incubated with 10 μg, day 7", "value": "3.6×10^2±0.8×10^2 CFU/mL"}, {"measurement": "MRSA graft infection (in words)", "setting": "MRSA [2]; rat, 2×10^7 MRSA pre-incubated with 20, 30 or 50 μg, day 7", "value": "No sign of infection"}, {"measurement": "minimal dose inhibiting RNAIII production", "setting": "RNAIII", "value": "0.2 picomoles per 1000 bacteria"}, {"measurement": "inhibition of RNAIII synthesis (in words)", "setting": "RNAIII; 2×10^7 cells, 2.5 hrs", "value": "inhibits RNAIII synthesis in a dose dependent manner"}, {"measurement": "dose most effective in inhibiting RNAIII synthesis", "setting": "RNAIII; 2×10^7 cells, 2.5 hrs", "value": "> 2", "unit": "μg/2×10^7 bacteria"}, {"measurement": "concentration inhibiting tumor necrosis factor α-mediated endothelial cell death", "setting": "[3]", "value": "less than 100 uM"}, {"measurement": "minimum concentration with high protective activity against cell damage", "setting": "[4]", "value": 50, "unit": "µM"}, {"measurement": "concentration affecting bacterial growth in vitro (no effect even at concentrations as high as)", "setting": "S. aureus strain; S. aureus", "value": "> 2.5", "unit": "mM per 1000 bacteria"}, {"measurement": "highest concentration without effect on growth relative to the MIC of ampicillin", "setting": "S. aureus strain; same S. aureus strain", "value": "13,000 times"}, {"measurement": "bacterial load on graft (in words)", "setting": "MRSA [5]; MRSA, graft pre-soaked in 30 or 50 mg/L, day 7", "value": "no bacterial load was detected"}, {"measurement": "bacterial load on graft", "setting": "MRSA [5]; MRSA, graft soaked with 0.5 mg/L, day 7", "value": "9.3×10^4±2.8×10^4 CFU/mL"}, {"measurement": "bacterial load on graft", "setting": "MRSA [5]; MRSA, graft soaked with 10 mg/L, day 7", "value": "2.6×10^3±0.3×10^3 CFU/mL"}, {"measurement": "bacterial load on graft", "setting": "MRSA [5]; MRSA, graft soaked with 20 mg/L, day 7", "value": "3.7×10^1±1.1×10^1 CFU/mL"}, {"measurement": "pre-soak concentration at which grafts show no signs of infection", "setting": "MRSA [5]; challenge 2×10^7, MRSA", "value": "at least 30 mg/L and ~60 uM"}, {"measurement": "decrease in bacterial load versus untreated control (in words)", "setting": "MRSA [5]; grafts presoaked 1 h, 0-50 mg/L, MRSA", "value": "Significant (p<0.05) decrease in bacterial load"}, {"measurement": "amount that could prevent an infection", "setting": "MRSE [6]", "value": 10, "unit": "µg"}, {"measurement": "amount at which no bacteria was found on graft", "setting": "MRSE [6]; rat, 2×10^7 MRSE pre-incubated 30 min, graft removed after seven days", "value": "> 20", "unit": "µg"}, {"measurement": "MRSE load on graft", "setting": "MRSE [6]; rat, 2×10^7 MRSE pre-incubated with 0.5 μg, day 7", "value": "8.4×10^3±2.2×10^3 CFU/ml"}, {"measurement": "MRSE load on graft", "setting": "MRSE [6]; rat, 2×10^7 MRSE pre-incubated with 10 μg, day 7", "value": "8.7×10^1±6.6×10^1 CFU/ml"}, {"measurement": "MRSE graft infection (in words)", "setting": "MRSE [6]; rat, 2×10^7 MRSE pre-incubated with 20, 30 or 50 μg, day 7", "value": "No sign of infection"}]}, {"molecule": "RIP: RNAIII-inhibiting peptide, sequence YSPWTNF, antagonist of RAP [reference compound]", "values": [{"measurement": "reduction of cell attachment (in words)", "setting": "S. aureus cells", "value": "reduced cell attachment in a dose-dependent manner"}, {"measurement": "amount most effective in reducing cell attachment", "setting": "S. aureus cells", "value": 0.4, "unit": "picomoles/10^3 bacteria"}, {"measurement": "amount that could prevent an infection", "setting": "MRSA [2]", "value": 10, "unit": "µg"}, {"measurement": "minimal dose inhibiting RNAIII production", "setting": "RNAIII", "value": "0.5 picomoles per 1000 bacteria"}, {"measurement": "inhibition of RNAIII synthesis (in words)", "setting": "RNAIII; 2×10^7 cells, 2.5 hrs", "value": "inhibited RNAIII production in a dose dependent manner"}, {"measurement": "dose most effective in inhibiting RNAIII synthesis", "setting": "RNAIII; 2×10^7 cells, 2.5 hrs", "value": 8, "unit": "μg/2×10^7 bacteria"}, {"measurement": "dose most effective in inhibiting RNAIII synthesis", "setting": "RNAIII; converted dose", "value": 0.5, "unit": "picomoles/10^3 bacteria"}, {"measurement": "amount that could prevent an infection", "setting": "MRSE [6]", "value": 10, "unit": "µg"}]}]}
